Measured values as given in ChEMBL document CHEMBL1201862, “PubChem BioAssay data set” (2004).
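Briefly, cells in 96-well plates were exposed to five compound concentrations for 48 h, and endpoints were estimated by linear interpolation. GI50 = concentration required for 50% inhibition of growth.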 Activity calls are given as the source filed them. Rule as the data show it: active = GI50 up to about 1.1 µM and inactive = higher. Where a SMILES comes first, the peptide text is derived from it. The star is where a group is joined. Boc = CC(C)(C)OC(=O)*

Key:
Experiment in all cases: DTP human tumour cell line panel, 48 h
TK-10 = test system: TK-10
MDA-N = test system: MDA-N
Malme-3M = test system: Malme-3M
SR = test system: SR
K562 = test system: K562
A549 = test system: A549
EKVX = test system: EKVX
786-0 = test system: 786-0
U-251 = test system: U-251
A498 = test system: A498
HCC 2998 = test system: HCC 2998
OVCAR-8 = test system: OVCAR-8
SK-OV-3 = test system: SK-OV-3
SK-MEL-2 = test system: SK-MEL-2
IGROV-1 = test system: IGROV-1
OVCAR-4 = test system: OVCAR-4
HCT-116 = test system: HCT-116
HT-29 = test system: HT-29
T47D = test system: T47D
UO-31 = test system: UO-31

Measured: GI50

CC1(C)CS(=O)(=O)CC(C)(C)C(=N/N)/C1=N\N
inactive: TK-10 > 100 µM | MDA-N > 100 µM | Malme-3M > 100 µM | SR > 100 µM | K562 > 100 µM | A549 > 100 µM | EKVX > 100 µM | 786-0 > 100 µM | U-251 > 100 µM | A498 > 100 µM | HCC 2998 > 100 µM | OVCAR-8 > 100 µM | SK-OV-3 > 100 µM | SK-MEL-2 > 100 µM | IGROV-1 > 100 µM | OVCAR-4 > 100 µM | HCT-116 > 100 µM | HT-29 > 100 µM | T47D > 100 µM

Cc1cc([C@H](C#N)c2nc3ccccc3s2)nc(Cl)n1
inactive: TK-10 4.98 µM | MDA-N 3.55 µM | Malme-3M 3.81 µM | SR 1.31 µM | K562 2.75 µM | A549 14.8 µM | EKVX 18.6 µM | 786-0 4.76 µM | U-251 2.86 µM | A498 15.2 µM | HCC 2998 4.86 µM | OVCAR-8 3.18 µM | SK-OV-3 5.66 µM | SK-MEL-2 4.72 µM | IGROV-1 3.52 µM | OVCAR-4 5.82 µM | HCT-116 3.22 µM | UO-31 4.39 µM | HT-29 3.88 µM | T47D 2.92 µM

CSc1ncnc2c1cnn2CCCCO
inactive: TK-10 > 100 µM | MDA-N > 100 µM | Malme-3M > 100 µM | SR > 100 µM | K562 > 100 µM | A549 > 100 µM | EKVX > 100 µM | 786-0 > 100 µM | U-251 > 100 µM | A498 > 100 µM | HCC 2998 > 100 µM | SK-OV-3 > 100 µM | SK-MEL-2 > 100 µM | IGROV-1 > 100 µM | OVCAR-4 > 100 µM | HCT-116 > 100 µM | UO-31 > 100 µM | HT-29 > 100 µM | T47D > 100 µM

O=S(=O)(c1ccccc1)[C@H]1[C@@H]2O[C@@H]2C[C@@H]1O
inactive: TK-10 > 100 µM | MDA-N > 100 µM | Malme-3M > 100 µM | SR > 100 µM | K562 > 100 µM | A549 > 100 µM | EKVX > 100 µM | 786-0 > 100 µM | U-251 > 100 µM | A498 > 100 µM | HCC 2998 > 100 µM | OVCAR-8 > 100 µM | SK-OV-3 > 100 µM | SK-MEL-2 > 100 µM | IGROV-1 > 100 µM | OVCAR-4 > 100 µM | HCT-116 > 100 µM | UO-31 > 100 µM | HT-29 > 100 µM | T47D > 100 µM

CC(C)=CCN1CC(C)C(=O)Nc2ccccc21 (configuration not stated)
inactive: TK-10 > 100 µM | MDA-N > 100 µM | Malme-3M > 100 µM | SR > 100 µM | K562 > 100 µM | A549 > 100 µM | EKVX > 100 µM | 786-0 > 100 µM | U-251 > 100 µM | A498 > 100 µM | HCC 2998 > 100 µM | OVCAR-8 78.9 µM | SK-OV-3 > 100 µM | SK-MEL-2 > 100 µM | IGROV-1 > 100 µM | OVCAR-4 > 100 µM | HCT-116 > 100 µM | UO-31 > 100 µM | HT-29 > 100 µM | T47D > 100 µM

CN(C)c1ccc(C(=C2C=CC(=[N+](C)C)C=C2)c2c(O)c(S(=O)(=O)[O-])cc3cc(S(=O)(=O)O)ccc23)cc1
inactive: TK-10 > 100 µM | MDA-N > 100 µM | Malme-3M > 100 µM | SR > 100 µM | K562 > 100 µM | A549 > 100 µM | EKVX > 100 µM | 786-0 > 100 µM | U-251 > 100 µM | A498 > 100 µM | HCC 2998 > 100 µM | OVCAR-8 > 100 µM | SK-OV-3 > 100 µM | SK-MEL-2 > 100 µM | IGROV-1 > 100 µM | OVCAR-4 > 100 µM | HCT-116 > 100 µM | UO-31 > 100 µM | HT-29 > 100 µM | T47D > 100 µM

CNC(=O)CNC(=O)C(NC(=O)CNC(=O)C1CCCN1C(=O)C(C)NC(=O)C(NC(=O)OC(C)(C)C)C(C)C)C(C)C (configuration not stated) (Boc-VAPGVG-NHMe; configuration not given here)
inactive: TK-10 > 100 µM | MDA-N > 100 µM | Malme-3M > 100 µM | SR > 100 µM | K562 > 100 µM | EKVX > 100 µM | 786-0 > 100 µM | U-251 > 100 µM | A498 > 100 µM | HCC 2998 > 100 µM | OVCAR-8 > 100 µM | SK-OV-3 > 100 µM | SK-MEL-2 > 100 µM | IGROV-1 > 100 µM | OVCAR-4 > 100 µM | HCT-116 > 100 µM | UO-31 > 100 µM | HT-29 > 100 µM | T47D > 100 µM
